The molecules below were run against human TRPA1 (Homo sapiens (Human), UniProt O75762) (assay: Measurement of TRPA1 antagonist activity (1): intracellular calcium increase). Settings: 293T cells transfected with human TRPA1 expression plasmid; allylisothiocyanate 20 μM stimulation; intracellular calcium fluorescence; read-out: hTRPA1 IC50.
Type: cell-based
Outline: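 Calcium-flux readout of TRPA1 block: compound given 10 min before 20 μM (final) allylisothiocyanate, fluorescence tracked 5 min. Cells were 293T transiently expressing human TRPA1, dye-loaded 1 hr in HBSS, 20 mM HEPES, pH 7.2. Inhibition scaled between agonist-only and buffer-only responses; IC50 by sigmoid fitting.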

Sequence of human TRPA1 (O75762 whole entry): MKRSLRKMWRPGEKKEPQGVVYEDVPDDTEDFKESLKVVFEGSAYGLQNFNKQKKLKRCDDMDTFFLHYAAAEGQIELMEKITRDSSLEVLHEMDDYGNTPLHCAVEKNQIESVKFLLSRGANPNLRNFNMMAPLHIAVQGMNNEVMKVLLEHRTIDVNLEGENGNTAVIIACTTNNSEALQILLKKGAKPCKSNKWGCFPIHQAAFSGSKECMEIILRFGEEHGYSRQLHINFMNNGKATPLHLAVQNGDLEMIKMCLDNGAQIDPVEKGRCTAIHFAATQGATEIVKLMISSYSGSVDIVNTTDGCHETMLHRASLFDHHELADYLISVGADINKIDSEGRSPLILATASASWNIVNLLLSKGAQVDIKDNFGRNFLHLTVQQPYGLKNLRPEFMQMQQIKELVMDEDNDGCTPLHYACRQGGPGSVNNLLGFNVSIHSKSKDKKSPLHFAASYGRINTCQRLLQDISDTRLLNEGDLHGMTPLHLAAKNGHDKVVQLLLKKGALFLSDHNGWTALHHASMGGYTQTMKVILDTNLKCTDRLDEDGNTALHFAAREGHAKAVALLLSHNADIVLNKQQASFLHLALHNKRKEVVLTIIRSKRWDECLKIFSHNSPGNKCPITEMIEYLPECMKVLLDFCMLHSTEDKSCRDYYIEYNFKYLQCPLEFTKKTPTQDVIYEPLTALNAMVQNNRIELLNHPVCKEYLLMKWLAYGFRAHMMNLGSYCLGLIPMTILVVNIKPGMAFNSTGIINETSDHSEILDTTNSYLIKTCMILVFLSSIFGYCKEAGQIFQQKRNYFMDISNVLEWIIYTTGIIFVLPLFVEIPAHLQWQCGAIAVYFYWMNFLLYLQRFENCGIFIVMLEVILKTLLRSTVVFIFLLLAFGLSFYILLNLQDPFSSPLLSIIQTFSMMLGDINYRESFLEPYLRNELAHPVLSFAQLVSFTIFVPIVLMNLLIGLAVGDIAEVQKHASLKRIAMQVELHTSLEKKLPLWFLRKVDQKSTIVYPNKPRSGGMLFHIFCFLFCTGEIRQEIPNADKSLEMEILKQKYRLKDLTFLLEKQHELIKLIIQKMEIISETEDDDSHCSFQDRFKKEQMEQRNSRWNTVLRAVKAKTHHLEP

| SMILES | IC50 |
| --- | --- |
| O=C(NCc1cccc(OS(=O)(=O)c2cc3cc(F)ccc3o2)c1)[C@@H]1CCCN1S(=O)(=O)c1cc2cc(F)ccc2o1 [Example 295, 5-fluorobenzofuran-2-sulfonic acid [3-[[[(2S)-1-(5-fluorobenzofuran-2-yl)sulfonylpyrrolidine-2-carbonyl]amino]methyl]phenyl]ester] | 69 nM |
| O=C(NCc1cccc(Nc2ccc(C(F)(F)F)cc2)c1)[C@@H]1CCCN1S(=O)(=O)c1cc2cc(F)ccc2o1 [Example 296, (2S)-1-(5-fluorobenzofuran-2-yl)sulfonyl-N-[[3-[4-(trifluoromethyl)anilino]phenyl]methyl]pyrrolidine-2-carboxamide] | 7.9 nM |
| O=C(NCc1cccc(/C=C/c2ccc(C(F)(F)F)cc2)c1)[C@@H]1CCCN1S(=O)(=O)c1cc2cc(F)ccc2o1 [Example 297, (2S)-1-(5-fluorobenzofuran-2-yl)sulfonyl-N-[[3-[(E)-2-[4-(trifluoromethyl)phenyl]vinyl]phenyl]methyl]pyrrolidine-2-carboxamide] | 7.5 nM |
| C[C@H](NS(=O)(=O)c1cc2cnccc2o1)C(=O)NCc1cc(-c2ccc(C(F)(F)F)cc2)ncn1 [Example 301, (2S)-2-(furo[3,2-c]pyridin-2-ylsulfonylamino)-N-[[6-[4-(trifluoromethyl)phenyl]pyrimidin-4-yl]methyl]propanamide] | 30 nM |
| C[C@H](NS(=O)(=O)c1cc2cnccc2o1)C(=O)NCc1cc(-c2ccc(OC(F)(F)F)cc2)ncn1 [Example 305, (2S)-2-(furo[3,2-c]pyridin-2-ylsulfonylamino)-N-[[6-[4-(trifluoromethoxy)phenyl]pyrimidin-4-yl]methyl]propanamide] | 26 nM |
| O=C(NCc1cc(-c2ccc(OC(F)(F)F)cc2)ncn1)[C@@H]1CCCN1S(=O)(=O)c1cc2cnccc2o1 [Example 306, (2S)-1-furo[3,2-c]pyridin-2-ylsulfonyl-N-[[6-[4-(trifluoromethoxy)phenyl]pyrimidin-4-yl]methyl]pyrrolidine-2-carboxamide] | 2.8 nM |
| O=C(NCc1ccc(F)c(-c2ccc(C(F)(F)F)cc2)c1)[C@@H]1CCCN1S(=O)(=O)c1cc2ccccc2o1 [Example 307, (2S)-1-(benzofuran-2-ylsulfonyl)-N-[[4-fluoro-3-[4-(trifluoromethyl)phenyl]phenyl]methyl]pyrrolidine-2-carboxamide] | 1.7 nM |
| O=C(NCc1ccc(F)c(-c2ccc(C(F)(F)F)cc2O)c1)[C@@H]1CCCN1S(=O)(=O)c1cc2ccccc2o1 [Example 308] | 360 nM |
| O=C(NCc1ccc(F)c(-c2ccc(C(F)(F)F)cn2)c1)[C@@H]1CCCN1S(=O)(=O)c1cc2ccccc2o1 [Example 309, (2S)-1-(benzofuran-2-ylsulfonyl)-N-[[4-fluoro-3-[5-(trifluoromethyl)-2-pyridyl]phenyl]methyl]pyrrolidine-2-carboxamide] | 10 nM |
| COc1cc(CNC(=O)[C@@H]2CCCN2S(=O)(=O)c2cc3ccccc3o2)cc(-c2ccc(C(F)(F)F)nc2)c1 [Example 310, (2S)-1-(benzofuran-2-ylsulfonyl)-N-[[3-methoxy-5-[6-(trifluoromethyl)-3-pyridyl]phenyl]methyl]pyrrolidine-2-carboxamide] | 2.5 nM |
| CC(C)COc1nc(CNC(=O)[C@@H]2CCCN2S(=O)(=O)c2cc3ccccc3o2)cc(-c2ccc(C(F)(F)F)cc2)n1 [Example 311, (2S)-1-(benzofuran-2-ylsulfonyl)-N-[[2-isobutoxy-6-[4-(trifluoromethyl)phenyl]pyrimidin-4-yl]methyl]pyrrolidine-2-carboxamide] | 3.7 nM |
| CC#CCN([C@@H](C)C(=O)NCc1ccnc(-c2ccc(C(F)(F)F)nc2)c1)S(=O)(=O)c1cc2cc(F)ccc2o1 [Example 313, (2S)-2-[but-2-ynyl-(5-fluorobenzofuran-2-yl)sulfonyl-amino]-N-[[2-[6-(trifluoromethyl)-3-pyridyl]-4-pyridyl]methyl]propanamide] | 37 nM |
| C#CCN([C@@H](C)C(=O)NCc1ccnc(-c2ccc(C(F)(F)F)nc2)c1)S(=O)(=O)c1cc2cc(F)ccc2o1 [Example 314, (2S)-2-[(5-fluorobenzofuran-2-yl)sulfonyl-prop-2-ynyl-amino]-N-[[2-[6-(trifluoromethyl)-3-pyridyl]-4-pyridyl]methyl]propanamide] | 4.6 nM |
| O=C(NCc1cccc(/C=C/c2ccc(C(F)(F)F)cc2)c1)[C@@H]1CCCN1S(=O)(=O)c1cc2ccccc2o1 [Example 317, (2S)-1-(benzofuran-2-ylsulfonyl)-N-[[3-[(E)-2-[4-(trifluoromethyl)phenyl]vinyl]phenyl]methyl]pyrrolidine-2-carboxamide] | 31 nM |
| O=C(NCc1cccc(CCc2ccc(C(F)(F)F)cc2)c1)[C@@H]1CCCN1S(=O)(=O)c1cc2ccccc2o1 [Example 318, (2S)-1-(benzofuran-2-ylsulfonyl)-N-[[3-[2-[4-(trifluoromethyl)phenyl]ethyl]phenyl]methyl]pyrrolidine-2-carboxamide] | 14 nM |
| O=C(NCc1cccc(CNc2ccc(C(F)(F)F)cn2)c1)[C@@H]1CCCN1S(=O)(=O)c1cc2ccccc2o1 [Example 320, (2S)-1-(benzofuran-2-ylsulfonyl)-N-[[3-[[[5-(trifluoromethyl)-2-pyridyl]amino]methyl]phenyl]methyl]pyrrolidine-2-carboxamide] | 920 nM |
| O=C(NCc1cccc(S(=O)(=O)c2ccc(C(F)(F)F)cc2)c1)[C@@H]1CCCN1S(=O)(=O)c1cc2ccccc2o1 [Example 322, (2S)-1-(benzofuran-2-ylsulfonyl)-N-[[3-[4-(trifluoromethyl)phenyl]sulfonylphenyl]methyl]pyrrolidine-2-carboxamide] | 310 nM |

More lines, in order of falling IC50, values ahead:

| IC50 | SMILES |
| --- | --- |
| 580 nM | CNc1ccccc1-c1cc(CNC(=O)[C@@H]2CCCN2S(=O)(=O)c2cc3ccccc3o2)ccn1 [Example 292, (2S)-1-(benzofuran-2-ylsulfonyl)-N-[[2-[2-(methylamino)phenyl]-4-pyridyl]methyl]pyrrolidine-2-carboxamide] |
| 350 nM | C[C@H](NS(=O)(=O)c1cc2cnccc2o1)C(=O)NCc1cc(-c2ccc(C(F)(F)F)cn2)ccn1 [Example 304, (2S)-2-(furo[3,2-c]pyridin-2-ylsulfonylamino)-N-[[4-[5-(trifluoromethyl)-2-pyridyl]-2-pyridyl]methyl]propanamide] |
| 310 nM | O=C(Nc1cccc(CNC(=O)[C@@H]2CCCN2S(=O)(=O)c2cc3ccccc3o2)c1)c1ccc(C(F)(F)F)cc1 [Example 300, (2S)-1-(benzofuran-2-ylsulfonyl)-N-[[3-[[4-(trifluoromethyl)benzoyl]amino]phenyl]methyl]pyrrolidine-2-carboxamide] |
| 230 nM | O=C(NCc1cccc([S+]([O-])Cc2ccc(C(F)(F)F)cc2)c1)[C@@H]1CCCN1S(=O)(=O)c1cc2ccccc2o1 (stereo partly drawn) [Example 316, (2S)-1-(benzofuran-2-ylsulfonyl)-N-[[3-[[4-(trifluoromethyl)phenyl]methylsulfinyl]phenyl]methyl]pyrrolidine-2-carboxamide] |
| 200 nM | O=C(NCc1cccc([S+]([O-])c2ccc(C(F)(F)F)cc2)c1)[C@@H]1CCCN1S(=O)(=O)c1cc2ccccc2o1 (stereo partly drawn) [Example 323, (2S)-1-(benzofuran-2-ylsulfonyl)-N-[[3-[4-(trifluoromethyl)phenyl]sulfinylphenyl]methyl]pyrrolidine-2-carboxamide] |
| 170 nM | O=C(NCc1ccnc(-c2cc(C(F)(F)F)n[nH]2)c1)[C@@H]1CCCN1S(=O)(=O)c1cc2ccccc2o1 [Example 294, (2S)-1-(benzofuran-2-ylsulfonyl)-N-[[2-[3-(trifluoromethyl)-1H-pyrazol-5-yl]-4-pyridyl]methyl]pyrrolidine-2-carboxamide] |
| 42 nM | C[C@H](NS(=O)(=O)c1cc2cnccc2o1)C(=O)NCc1ccnc(-c2ccc(C(F)(F)F)cc2O)c1 [Example 303, (2S)-2-(furo[3,2-c]pyridin-2-ylsulfonylamino)-N-[[2-[2-hydroxy-4-(trifluoromethyl)phenyl]-4-pyridyl]methyl]propanamide] |
| 33 nM | O=C(NCc1cccc(Sc2ccc(C(F)(F)F)cc2)c1)[C@@H]1CCCN1S(=O)(=O)c1cc2ccccc2o1 [Example 321, (2S)-1-(benzofuran-2-ylsulfonyl)-N-[[3-[4-(trifluoromethyl)phenyl]sulfanylphenyl]methyl]pyrrolidine-2-carboxamide] |
| 27 nM | O=C(NCc1cccc(Cc2ccccc2)c1)[C@@H]1CCCN1S(=O)(=O)c1cc2cc(F)ccc2o1 [Example 319, (2S)—N-[(3-benzylphenyl)methyl]-1-(5-fluorobenzofuran-2-yl)sulfonyl-pyrrolidine-2-carboxamide] |
| 22 nM | O=C(NCc1cccc(SCc2ccc(C(F)(F)F)cc2)c1)[C@@H]1CCCN1S(=O)(=O)c1cc2ccccc2o1 [Example 315, (2S)-1-(benzofuran-2-ylsulfonyl)-N-[[3-[[4-(trifluoromethyl)phenyl]methylsulfanyl]phenyl]methyl]pyrrolidine-2-carboxamide] |
| 11 nM | O=C(NCc1cccc(COc2ccc(C(F)(F)F)cc2)c1)[C@@H]1CCCN1S(=O)(=O)c1cc2ccccc2o1 [Example 298, (2S)-1-(benzofuran-2-ylsulfonyl)-N-[[3-[[4-(trifluoromethyl)phenoxy]methyl]phenyl]methyl]pyrrolidine-2-carboxamide] |
| 5.3 nM | CN(C)c1nc(CNC(=O)[C@@H]2CCCN2S(=O)(=O)c2cc3ccccc3o2)cc(-c2ccc(C(F)(F)F)cc2)n1 [Example 312, (2S)-1-(benzofuran-2-ylsulfonyl)-N-[[2-(dimethylamino)-6-[4-(trifluoromethyl)phenyl]pyrimidin-4-yl]methyl]pyrrolidine-2-carboxamide] |
| 3.1 nM | N#Cc1ccc(-c2cc(CNC(=S)[C@@H]3CCCN3S(=O)(=O)c3cc4ccccc4o3)ccn2)cc1 [Example 293, (2S)-1-(benzofuran-2-ylsulfonyl)-N-[[2-(4-cyanophenyl)-4-pyridyl]methyl]pyrrolidine-2-carbothioamide] |
